Legend:
[1] = Dark toxicity against human NHDF cells assessed as reduction in cell viability incubated for 24 hrs by MTT assay; format: cell-based
[2] = Phototoxicity against human NHDF cells assessed as reduction in cell viability preincubated for 24 hrs followed by 7 mins of LED light irradiation by MTT assay; format: toxicity, cell-based
[3] = Phototoxicity ratio of IC50 for cytotoxicity against human NHDF cells assessed as reduction in cell viability in dark to IC50 for phototoxicity against human NHDF cells upon LED light irradiation; format: toxicity, cell-based; settings: read-out: Ratio IC50
[4] = Dark toxicity against human Caco-2 cells assessed as reduction in cell viability incubated for 24 hrs by MTT assay; format: cell-based
[5] = Phototoxicity against human Caco-2 cells assessed as reduction in cell viability preincubated for 24 hrs followed by 7 mins of LED light irradiation by MTT assay; format: toxicity, cell-based; settings: Caco-2, light or radiation study
[6] = Phototoxicity ratio of IC50 for cytotoxicity against human Caco-2 cells assessed as reduction in cell viability in dark to IC50 for phototoxicity against human Caco-2 cells upon LED light irradiation; format: toxicity, cell-based
[7] = Selectivity ratio of IC50 for phototoxicity against human NHDF cells upon LED light irradiation to IC50 for phototoxicity against human Caco-2 cells upon LED light irradiation; format: toxicity, cell-based; settings: NHDF cells versus Caco-2 cells, read-out: Ratio IC50
[8] = Dark toxicity against human HeLa cells assessed as reduction in cell viability incubated for 24 hrs by MTT assay; format: cell-based
[9] = Phototoxicity against human HeLa cells assessed as reduction in cell viability preincubated for 24 hrs followed by 7 mins of LED light irradiation by MTT assay; format: toxicity, cell-based; settings: light or radiation study
[10] = Phototoxicity ratio of IC50 for cytotoxicity against human HeLa cells assessed as reduction in cell viability in dark to IC50 for phototoxicity against human HeLa cells upon LED light irradiation; format: toxicity, cell-based
[11] = Selectivity ratio of IC50 for phototoxicity against human NHDF cells upon LED light irradiation to IC50 for phototoxicity against human HeLa cells upon LED light irradiation; format: toxicity, cell-based; settings: NHDF cells versus HeLa cells, read-out: Ratio IC50
[12] = Dark toxicity against human MCF7 cells assessed as reduction in cell viability incubated for 24 hrs by MTT assay; format: cell-based
[13] = Phototoxicity against human MCF7 cells assessed as reduction in cell viability preincubated for 24 hrs followed by 7 mins of LED light irradiation by MTT assay; format: toxicity, cell-based; settings: MCF7, light or radiation study
[14] = Phototoxicity ratio of IC50 for cytotoxicity against human MCF7 cells assessed as reduction in cell viability in dark to IC50 for phototoxicity against human MCF7 cells upon LED light irradiation; format: toxicity, cell-based
[15] = Selectivity ratio of IC50 for phototoxicity against human NHDF cells upon LED light irradiation to IC50 for phototoxicity against human MCF7 cells upon LED light irradiation; format: toxicity, cell-based; settings: NHDF cells versus MCF7 cells, read-out: Ratio IC50
[16] = Dark toxicity against human PC-3 cells assessed as reduction in cell viability incubated for 24 hrs by MTT assay; format: cell-based
[17] = Phototoxicity against human PC-3 cells assessed as reduction in cell viability preincubated for 24 hrs followed by 7 mins of LED light irradiation by MTT assay; format: toxicity, cell-based; settings: PC-3, light or radiation study
[18] = Phototoxicity ratio of IC50 for cytotoxicity against human PC-3 cells assessed as reduction in cell viability in dark to IC50 for phototoxicity against human PC-3 cells upon LED light irradiation; format: toxicity, cell-based
Albumin = Albumin (Homo sapiens, UniProt P02768); experiment: Binding affinity to human serum albumin assessed as binding constant by fluorescence based assay
[19] = Selectivity ratio of IC50 for phototoxicity against human NHDF cells upon LED light irradiation to IC50 for phototoxicity against human PC-3 cells upon LED light irradiation; format: toxicity, cell-based; settings: NHDF cells versus PC-3 cells, read-out: Ratio IC50
HeLa = experiment: Induction of cell cycle arrest in human HeLa cells assessed as accumulation of hypodiploid cells in sub-G1 phase at 0.24 to 1 uM measured after 24 hrs in the absence of light by PI staining based flow cytometry analysis; format: functional; settings: dose 0.24-1 µM

Sequence of Albumin (P02768 whole entry): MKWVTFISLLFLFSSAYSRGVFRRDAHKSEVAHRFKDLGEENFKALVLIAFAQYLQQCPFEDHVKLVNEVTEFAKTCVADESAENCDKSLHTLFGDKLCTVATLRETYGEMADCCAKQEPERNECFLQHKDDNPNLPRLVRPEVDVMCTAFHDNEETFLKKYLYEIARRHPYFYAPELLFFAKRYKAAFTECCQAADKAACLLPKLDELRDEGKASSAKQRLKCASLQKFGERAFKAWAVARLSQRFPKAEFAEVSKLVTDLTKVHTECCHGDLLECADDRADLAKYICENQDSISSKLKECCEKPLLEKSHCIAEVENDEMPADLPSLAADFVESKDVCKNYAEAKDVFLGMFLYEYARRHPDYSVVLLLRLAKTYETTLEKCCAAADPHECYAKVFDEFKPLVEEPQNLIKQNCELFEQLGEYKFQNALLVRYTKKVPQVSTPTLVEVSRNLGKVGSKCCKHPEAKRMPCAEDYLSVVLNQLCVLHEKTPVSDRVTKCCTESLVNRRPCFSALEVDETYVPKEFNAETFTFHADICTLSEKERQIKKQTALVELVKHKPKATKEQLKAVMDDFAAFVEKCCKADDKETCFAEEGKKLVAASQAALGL

Compound	IC50 at 24 h [1] [µM]	IC50 at 24 h [2] [µM]	selectivity ratio [3]	IC50 at 24 h [4] [µM]	IC50 [5] [µM]	Ratio IC50 [6]	selectivity ratio [7]	IC50 at 24 h [8] [µM]	IC50 [9] [µM]	Ratio IC50 [10]	selectivity ratio [11]	IC50 at 24 h [12] [µM]	IC50 [13] [µM]	Ratio IC50 [14]	selectivity ratio [15]	IC50 at 24 h [16] [µM]	IC50 [17] [µM]	Ratio IC50 [18]	Kb (Albumin)	selectivity ratio [19]	further results
CCN1/C(=C/C2=C(N(Cc3ccccn3)Cc3ccccn3)C(=C/C3=[N+](CC)c4ccc5ccccc5c4C3(C)C)/C2=O)C(C)(C)c2c1ccc1ccccc21.[I-]	0.484	0.184	2.6	0.328	0.092	3.6	2	0.449	0.113	4	1.63	0.534	0.15	3.6	1.23	0.393	0.148	2.7	5.92 10^5/M		
CCCCCCN1/C(=C/C2=C(N(Cc3ccccn3)Cc3ccccn3)C(=C/C3=[N+](CCCCCC)c4ccc5ccccc5c4C3(C)C)/C2=O)C(C)(C)c2c1ccc1ccccc21.[I-]	1.01	0.695	1.4	2.49	2.13	1.2	0.33	1.74	1.17	1.5	0.59	1.52	1.19	1.3	0.59	1.11	0.967	1.1	7.68 10^5/M	0.72	
CCCCCCN1/C(=C/C2=C(NCc3ccccn3)C(=C/C3=[N+](CCCCCC)c4ccc5ccccc5c4C3(C)C)/C2=O)C(C)(C)c2c1ccc1ccccc21.[I-]	4.3	1.28	3.4	> 10	4.82	> 2.1	0.26	4.79	2.58	1.9	0.49	3.1	2.29	1.4	0.56	6.69	1.53	1.3	1.64 10^5/M	0.84	Activity (HeLa): 1%

Reference: ChEMBL document CHEMBL5042514, “Picolylamine-functionalized benz[e]indole squaraine dyes: Synthetic approach, characterization and in vitro efficacy as potential anticancer phototherapeutic agents” (Eur J Med Chem, 2022)
